Assay results reported in PubChem BioAssay AID330 (DTP/NCI, 2004).
Several values for one entry are separate records, joined by “and”; a condition that tells them apart may be missing. Equal values may be shown once. Toxic doses and inconclusive results are not listed.

Test system: P388 leukemia ip, CD2F1 mice, survival T/C
Assay: NCI In Vivo Anticancer Drug Screen. Data for tumor model P388 Leukemia (intraperitoneal) in CD2F1 (CDF1) mice
Conditions: endpoint: median survival time, higher = longer survival
In short: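 Mice carrying the transplanted tumor received test compound or vehicle. Survival was recorded in each group, and the value is the treated-group measurement divided by that of the vehicle-treated control group.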

[1] = dose: 60.0 mg/kg/injection, schedule: Q01DX005 (ip), vehicle: saline with Tween-80
[2] = dose: 120.0 mg/kg/injection, schedule: Q01DX005 (ip), vehicle: saline with Tween-80
[3] = dose: 25.0 mg/kg/injection, schedule: Q01DX009 (ip), vehicle: saline with Tween-80
[4] = dose: 50.0 mg/kg/injection, schedule: Q01DX009 (ip), vehicle: saline with Tween-80
[5] = dose: 100.0 mg/kg/injection, schedule: Q01DX009 (ip), vehicle: saline with Tween-80
[6] = dose: 50.0 mg/kg/injection, schedule: Q01DX005 (ip), vehicle: saline with Tween-80
[7] = dose: 100.0 mg/kg/injection, schedule: Q01DX005 (ip), vehicle: saline with Tween-80
[8] = dose: 200.0 mg/kg/injection, schedule: Q01DX005 (ip), vehicle: saline with Tween-80
[9] = dose: 100.0 mg/kg/injection, schedule: Q04DX002 (ip), vehicle: Klucel (hydroxypropylcellulose) (HPC)
[10] = dose: 200.0 mg/kg/injection, schedule: Q04DX002 (ip), vehicle: Klucel (hydroxypropylcellulose) (HPC)
[11] = dose: 400.0 mg/kg/injection, schedule: Q04DX002 (ip), vehicle: Klucel (hydroxypropylcellulose) (HPC)

Structure (SMILES): Cc1ccc(S(=O)(=O)NCCN(CCNS(=O)(=O)c2ccc(C)cc2)S(=O)(=O)c2ccc(C)cc2)cc1
- T/C (dose: 100.0 mg/kg/injection, schedule: Q01DX001 (ip), vehicle: saline with Tween-80): 86 % of control
- T/C (dose: 200.0 mg/kg/injection, schedule: Q01DX001 (ip), vehicle: saline with Tween-80): 86 % of control
- T/C (dose: 400.0 mg/kg/injection, schedule: Q01DX001 (ip), vehicle: saline with Tween-80): 88 % of control

Structure (SMILES): Clc1ccc(COCc2ccccc2Cn2ccnc2)cc1
- T/C [1]: 95 % of control
- T/C [2]: 99 % of control

Structure (SMILES): NC1=C(Br)C(=O)C(N)=C(Br)C1=O
- T/C (dose: 60.0 mg/kg/injection, schedule: Q01DX005 (ip), vehicle: Klucel (hydroxypropylcellulose) (HPC)): 100 % of control
- T/C (dose: 120.0 mg/kg/injection, schedule: Q01DX005 (ip), vehicle: Klucel (hydroxypropylcellulose) (HPC)): 97 % of control
- T/C (dose: 240.0 mg/kg/injection, schedule: Q01DX005 (ip), vehicle: Klucel (hydroxypropylcellulose) (HPC)): 105 % of control

Structure (SMILES): c1ccc2c(Cc3csc4ccccc34)csc2c1
- T/C (dose: 50.0 mg/kg/injection, schedule: Q01DX005 (ip), vehicle: distilled water + Tween-80 + alcohol): 106 % of control
- T/C (dose: 100.0 mg/kg/injection, schedule: Q01DX005 (ip), vehicle: distilled water + Tween-80 + alcohol): 115 % of control
- T/C (dose: 200.0 mg/kg/injection, schedule: Q01DX005 (ip), vehicle: distilled water + Tween-80 + alcohol): 115 % of control

Structure (SMILES): C#C/C=C/CC1OC(CC)/C=C\C=C/CC1Cl (centres undefined)
- T/C (dose: 2.0 mg/kg/injection, schedule: Q01DX009 (ip), vehicle: Klucel (hydroxypropylcellulose) (HPC)): 100 % of control
- T/C (dose: 4.0 mg/kg/injection, schedule: Q01DX009 (ip), vehicle: Klucel (hydroxypropylcellulose) (HPC)): 109 % of control
- T/C (dose: 8.0 mg/kg/injection, schedule: Q01DX009 (ip), vehicle: Klucel (hydroxypropylcellulose) (HPC)): 96 % of control
- T/C (dose: 16.0 mg/kg/injection, schedule: Q01DX009 (ip), vehicle: Klucel (hydroxypropylcellulose) (HPC)): 104 % of control

Structure (SMILES): CB1NN=C(C)c2sccc21
- T/C [3]: 102 % of control
- T/C [4]: 103 % of control
- T/C [5]: 86 % of control

Structure (SMILES): Cc1ccc(S(=O)(=O)N/N=C2\CC/C(=N\NS(=O)(=O)c3ccc(C)cc3)[C@@H]3CC=CC[C@H]23)cc1
- T/C [6]: 92 % of control
- T/C [7]: 92 % of control
- T/C [8]: 89 % of control

Structure (SMILES): N#CNC1=NC(c2ccccc2)CC=C1 (centres undefined)
- T/C [4]: 102 % of control
- T/C [5]: 113 % of control

Structure (SMILES): COC1=C(Br)C(O)C2(C=C1Br)CC(C(=O)NCC(O)COc1c(Br)cc(C(O)CNC(=O)C3=NOC4(C=C(Br)C(OC)=C(Br)C4O)C3)cc1Br)=NO2 (centres undefined)
- T/C (dose: 25.0 mg/kg/injection, schedule: Q01DX009 (ip), vehicle: saline + Tween-80 + alcohol): 110 % of control
- T/C (dose: 50.0 mg/kg/injection, schedule: Q01DX009 (ip), vehicle: saline + Tween-80 + alcohol): 112 % of control and 92 % of control
- T/C (dose: 100.0 mg/kg/injection, schedule: Q01DX009 (ip), vehicle: saline + Tween-80 + alcohol): 112 % of control and 92 % of control
- T/C (dose: 200.0 mg/kg/injection, schedule: Q01DX009 (ip), vehicle: saline + Tween-80 + alcohol): 102 % of control

Structure (SMILES): CCOc1ccc(N=Nc2c(C)nn(C(N)=S)c2OCC)cc1
- T/C (dose: 15.0 mg/kg/injection, schedule: Q01DX005 (ip), vehicle: Klucel (hydroxypropylcellulose) (HPC)): 100 % of control
- T/C (dose: 30.0 mg/kg/injection, schedule: Q01DX005 (ip), vehicle: Klucel (hydroxypropylcellulose) (HPC)): 97 % of control

Structure (SMILES): c1ccc(C23CC4CCCCC4CC2O3)cc1 (centres undefined)
- T/C [9]: 98 % of control
- T/C [10]: 111 % of control
- T/C [11]: 104 % of control

Structure (SMILES): CC(C)CCC[C@@H](C)[C@H]1CC[C@H]2[C@@H]3CC=C4C[C@@H](OC(=O)Cc5ccc(N(CCCl)CCCl)cc5)CC[C@]4(C)[C@H]3CC[C@]12C
- T/C (dose: 50.0 mg/kg/injection, schedule: Q01DX010 (ip), vehicle: Klucel (hydroxypropylcellulose) (HPC)): 101 % of control
- T/C (dose: 100.0 mg/kg/injection, schedule: Q01DX010 (ip), vehicle: Klucel (hydroxypropylcellulose) (HPC)): 99 % of control
- T/C (dose: 200.0 mg/kg/injection, schedule: Q01DX010 (ip), vehicle: Klucel (hydroxypropylcellulose) (HPC)): 101 % of control
- T/C (dose: 400.0 mg/kg/injection, schedule: Q01DX010 (ip), vehicle: Klucel (hydroxypropylcellulose) (HPC)): 105 % of control
- T/C (dose: 800.0 mg/kg/injection, schedule: Q01DX010 (ip), vehicle: Klucel (hydroxypropylcellulose) (HPC)): 92 % of control

Structure (SMILES): CC1=CC2C(=O)N(C)C1c1ccccc12 (centres undefined)
- T/C [9]: 100 % of control
- T/C [10]: 100 % of control
- T/C [11]: 97 % of control

Structure (SMILES): CCOC(=O)/C=C/CI
- T/C (dose: 25.0 mg/kg/injection, schedule: Q01DX009 (ip), vehicle: other): 105 % of control and 98 % of control
- T/C (dose: 50.0 mg/kg/injection, schedule: Q01DX009 (ip), vehicle: other): 114 % of control and 120 % of control and 97 % of control
- T/C (dose: 100.0 mg/kg/injection, schedule: Q01DX009 (ip), vehicle: other): 117 % of control and 97 % of control

Structure (SMILES): CC(C)CC1([N+](=O)[O-])CN(C)CC2CCCCN2C1 (centres undefined)
- T/C (dose: 25.0 mg/kg/injection, schedule: Q04DX002 (ip), vehicle: water): 102 % of control
- T/C (dose: 50.0 mg/kg/injection, schedule: Q04DX002 (ip), vehicle: water): 107 % of control
- T/C (dose: 100.0 mg/kg/injection, schedule: Q04DX002 (ip), vehicle: saline): 102 % of control
- T/C (dose: 100.0 mg/kg/injection, schedule: Q04DX002 (ip), vehicle: water): 99 % of control

Structure (SMILES): Cc1cc(NCCCCNCCCNc2cc(C)nc3cc([N+](=O)[O-])ccc23)c2ccc([N+](=O)[O-])cc2n1
- T/C (dose: 12.5 mg/kg/injection, schedule: Q01DX009 (ip), vehicle: other): 150 % of control

Structure (SMILES): COc1ccc2[nH]c3c(c2c1)C(=O)c1ccncc1C3=O
- T/C (dose: 37.5 mg/kg/injection, schedule: Q04DX002 (ip), vehicle: Klucel (hydroxypropylcellulose) (HPC)): 87 % of control
- T/C (dose: 75.0 mg/kg/injection, schedule: Q04DX002 (ip), vehicle: Klucel (hydroxypropylcellulose) (HPC)): 91 % of control

Structure (SMILES): CCCCOC(=O)N(CCF)N=O
- T/C (dose: 3.12 mg/kg/injection, schedule: Q01DX001 (ip), vehicle: saline with Tween-80): 109 % of control
- T/C (dose: 6.25 mg/kg/injection, schedule: Q01DX001 (ip), vehicle: saline with Tween-80): 118 % of control and 119 % of control
- T/C (dose: 12.5 mg/kg/injection, schedule: Q01DX001 (ip), vehicle: saline with Tween-80): 118 % of control and 119 % of control

Structure (SMILES): COC(=O)[C@@]12OC[C@]34[C@H]([C@@H](O)[C@@H]1O)[C@@]1(C)C=C(OC5OC(CO)C(O)C(O)C5O)C(=O)C(C)[C@@H]1C[C@H]3OC(=O)[C@H](OC(=O)C=C(C)C)[C@@H]24 (some centres undefined)
- T/C (dose: 0.25 mg/kg/injection, schedule: Q01DX009 (ip), vehicle: saline + alcohol): 107 % of control
- T/C (dose: 0.5 mg/kg/injection, schedule: Q01DX009 (ip), vehicle: saline + alcohol): 112 % of control
- T/C (dose: 1.0 mg/kg/injection, schedule: Q01DX009 (ip), vehicle: saline + alcohol): 112 % of control
- T/C (dose: 2.0 mg/kg/injection, schedule: Q01DX009 (ip), vehicle: saline + alcohol): 106 % of control
- T/C (dose: 4.0 mg/kg/injection, schedule: Q01DX009 (ip), vehicle: saline + alcohol): 112 % of control
- T/C (dose: 8.0 mg/kg/injection, schedule: Q01DX009 (ip), vehicle: saline + alcohol): 111 % of control

Structure (SMILES): Cc1cc(N=[N+]=[N-])c2cc(C3CCCCC3)ccc2n1
- T/C [1]: 94 % of control
- T/C [2]: 93 % of control
- T/C (dose: 240.0 mg/kg/injection, schedule: Q01DX005 (ip), vehicle: saline with Tween-80): 92 % of control

Structure (SMILES): NCCn1c(-c2ccccc2)nc2ccccc2c1=O
- T/C (dose: 50.0 mg/kg/injection, schedule: Q01DX005 (ip), vehicle: Klucel (hydroxypropylcellulose) (HPC)): 100 % of control
- T/C (dose: 100.0 mg/kg/injection, schedule: Q01DX005 (ip), vehicle: Klucel (hydroxypropylcellulose) (HPC)): 97 % of control
- T/C (dose: 200.0 mg/kg/injection, schedule: Q01DX005 (ip), vehicle: Klucel (hydroxypropylcellulose) (HPC)): 109 % of control

Structure (SMILES): COc1ccc(N=Nc2c(C)nn(C(=S)SC)c2C)cc1
- T/C (dose: 100.0 mg/kg/injection, schedule: Q04DX002 (ip), vehicle: saline with Tween-80): 100 % of control
- T/C (dose: 200.0 mg/kg/injection, schedule: Q04DX002 (ip), vehicle: saline with Tween-80): 105 % of control
- T/C (dose: 400.0 mg/kg/injection, schedule: Q04DX002 (ip), vehicle: saline with Tween-80): 109 % of control

Structure (SMILES): Cc1ccc(C(C)(N=[N+]=[N-])c2ccccc2)cc1C (centres undefined)
- T/C [3]: 91 % of control
- T/C [4]: 108 % of control
- T/C [5]: 109 % of control

Structure (SMILES): O=c1n(-c2ccccc2)c2nc3ccccc3nc2n1-c1ccc(Cl)c(Cl)c1
- T/C [6]: 90 % of control
- T/C [7]: 100 % of control
- T/C [8]: 109 % of control
